According to ChEMBL document CHEMBL1201862, “PubChem BioAssay data set” (2004):
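All cell lines were grown in 96-well plates and treated with compound for 48 hours. GI50 = concentration required for 50% inhibition of growth.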 Active and inactive are the calls of the source. Rule as the data show it: active = GI50 up to about 1.1 µM and inactive = higher.

Assays:
Assay in all cases: NCI-60 cell line screen, 48 h
ACHN = system: ACHN
EKVX = system: EKVX
IGROV-1 = system: IGROV-1
K562 = system: K562
M14 = system: M14
MCF7 = system: MCF7
MOLT-4 = system: MOLT-4
NCI-H23 = system: NCI-H23
NCI-H460 = system: NCI-H460
NCI-H522 = system: NCI-H522
OVCAR-3 = system: OVCAR-3
SF-268 = system: SF-268
SK-MEL-28 = system: SK-MEL-28
SN12C = system: SN12C
SNB-19 = system: SNB-19
SW-620 = system: SW-620
U-251 = system: U-251
RXF 393 = system: RXF 393
SF-295 = system: SF-295
HL-60 = system: HL-60

Row | SMILES | GI50 (ACHN) | GI50 (EKVX) | GI50 (IGROV-1) | GI50 (K562) | GI50 (M14) | GI50 (MCF7) | GI50 (MOLT-4) | GI50 (NCI-H23) | GI50 (NCI-H460) | GI50 (NCI-H522) | GI50 (OVCAR-3) | GI50 (SF-268) | GI50 (SK-MEL-28) | GI50 (SN12C) | GI50 (SNB-19) | GI50 (SW-620) | GI50 (U-251) | GI50 (RXF 393) | GI50 (SF-295) | GI50 (HL-60)
1 | O[C@@]12Cc3c([nH]c4ccccc34)[C@@H]3Oc4cccc5c4[C@@]31CCN(CC1CC1)[C@@H]2C5 | 20.4 µM (inactive) | 24.5 µM (inactive) | 24.9 µM (inactive) | 22.6 µM (inactive) | 23.7 µM (inactive) | 17.5 µM (inactive) | 19.6 µM (inactive) | 30.7 µM (inactive) | 46.1 µM (inactive) | 22.8 µM (inactive) | 22.3 µM (inactive) | 19.5 µM (inactive) | 12.7 µM (inactive) | 21.7 µM (inactive) | 33 µM (inactive) | 11.4 µM (inactive) | 39.7 µM (inactive) | – | – | –
2 | COc1cc2c(cc1OC)-c1cc3ccccc3c[n+]1CC2 | > 100 µM (inactive) | > 100 µM (inactive) | > 100 µM (inactive) | 48.4 µM (inactive) | > 100 µM (inactive) | 70.3 µM (inactive) | > 100 µM (inactive) | > 100 µM (inactive) | > 100 µM (inactive) | 18.8 µM (inactive) | 51.5 µM (inactive) | 27.5 µM (inactive) | > 100 µM (inactive) | 39.6 µM (inactive) | > 100 µM (inactive) | > 100 µM (inactive) | 33.6 µM (inactive) | > 100 µM (inactive) | 74.8 µM (inactive) | –
3 | CCCCCCCCCCCCCCCCCc1cc(Cl)nc(Cl)n1 | > 100 µM (inactive) | > 100 µM (inactive) | > 100 µM (inactive) | > 100 µM (inactive) | > 100 µM (inactive) | 36.6 µM (inactive) | > 100 µM (inactive) | > 100 µM (inactive) | > 100 µM (inactive) | – | > 100 µM (inactive) | > 100 µM (inactive) | > 100 µM (inactive) | > 100 µM (inactive) | > 100 µM (inactive) | > 100 µM (inactive) | > 100 µM (inactive) | > 100 µM (inactive) | > 100 µM (inactive) | 50.8 µM (inactive)
4 | N#Cc1ccc(-c2nc(C#N)c(N)o2)cc1 | > 10 µM (inactive) | > 10 µM (inactive) | > 10 µM (inactive) | > 10 µM (inactive) | > 10 µM (inactive) | > 10 µM (inactive) | > 10 µM (inactive) | > 10 µM (inactive) | > 10 µM (inactive) | > 10 µM (inactive) | – | > 10 µM (inactive) | > 10 µM (inactive) | > 10 µM (inactive) | > 10 µM (inactive) | > 10 µM (inactive) | – | > 10 µM (inactive) | > 10 µM (inactive) | > 10 µM (inactive)
5 | CC1(C)OC2OC(COC(=O)c3ccc(C#N)cc3)C3OC(C)(C)OC3C2O1 (stereo unspecified) | > 75 µM (inactive) | > 75 µM (inactive) | > 75 µM (inactive) | > 75 µM (inactive) | > 75 µM (inactive) | > 75 µM (inactive) | > 75 µM (inactive) | > 75 µM (inactive) | – | > 75 µM (inactive) | > 75 µM (inactive) | > 75 µM (inactive) | > 75 µM (inactive) | > 75 µM (inactive) | > 75 µM (inactive) | > 75 µM (inactive) | > 75 µM (inactive) | > 75 µM (inactive) | > 75 µM (inactive) | –
6 | Nc1ccc(Sc2nnc(N)s2)cc1 | > 100 µM (inactive) | > 100 µM (inactive) | > 100 µM (inactive) | > 100 µM (inactive) | > 100 µM (inactive) | > 100 µM (inactive) | > 100 µM (inactive) | – | > 100 µM (inactive) | > 100 µM (inactive) | – | > 100 µM (inactive) | > 100 µM (inactive) | > 100 µM (inactive) | > 100 µM (inactive) | > 100 µM (inactive) | > 100 µM (inactive) | – | > 100 µM (inactive) | > 100 µM (inactive)
7 | CC(C)(C)OC(=O)C1C(=O)NC(=O)CC1CC(OCc1ccccc1)C(COCc1ccccc1)OCc1ccccc1 (stereo unspecified) | 10.2 µM (inactive) | 16.5 µM (inactive) | 23.2 µM (inactive) | 5.19 µM (inactive) | 14 µM (inactive) | 4.51 µM (inactive) | 2.88 µM (inactive) | 10.1 µM (inactive) | 13.4 µM (inactive) | – | – | 11.3 µM (inactive) | 29.4 µM (inactive) | 25 µM (inactive) | 20.6 µM (inactive) | 9.33 µM (inactive) | 5.18 µM (inactive) | 2.55 µM (inactive) | 8.38 µM (inactive) | 1.97 µM (inactive)
8 | COC(=O)C1=C(C(=O)OC)C2(C)C=CC1O2 (stereo unspecified) | 5.78 µM (inactive) | 22 µM (inactive) | 19.4 µM (inactive) | 4.52 µM (inactive) | 17.3 µM (inactive) | 31.5 µM (inactive) | – | 17.8 µM (inactive) | > 100 µM (inactive) | 2 µM (inactive) | 0.55 µM (active) | 31 µM (inactive) | 16 µM (inactive) | 17.5 µM (inactive) | > 100 µM (inactive) | 4.68 µM (inactive) | 18 µM (inactive) | 20.9 µM (inactive) | – | –
9 | CNC1=C(C)C(=O)C2=C(C1=O)C(COC(N)=O)C1(OC)C3NC3CN21 (stereo unspecified) | 0.16 µM (active) | 22 µM (inactive) | 3.53 µM (inactive) | 4.07 µM (inactive) | 0.22 µM (active) | 0.107 µM (active) | 3.68 µM (inactive) | 0.105 µM (active) | < 0.01 µM (active) | 0.427 µM (active) | 3.36 µM (inactive) | 0.783 µM (active) | 1.29 µM (inactive) | – | 0.268 µM (active) | 0.385 µM (active) | 0.883 µM (active) | – | 0.0853 µM (active) | 2.02 µM (inactive)
10 | CCSc1[nH]c(/N=C(/NC(=O)c2ccccc2)NC(C)C)c(C(N)=O)c1C(N)=O | – | > 10 µM (inactive) | > 10 µM (inactive) | > 10 µM (inactive) | > 10 µM (inactive) | > 10 µM (inactive) | > 10 µM (inactive) | > 10 µM (inactive) | – | – | – | > 10 µM (inactive) | > 10 µM (inactive) | > 10 µM (inactive) | – | > 10 µM (inactive) | – | > 10 µM (inactive) | > 10 µM (inactive) | > 10 µM (inactive)
11 | O=C1Sc2ccccc2/C1=N/Nc1ccccc1[N+](=O)[O-] | 93.1 µM (inactive) | > 100 µM (inactive) | > 100 µM (inactive) | > 100 µM (inactive) | > 100 µM (inactive) | 17 µM (inactive) | > 100 µM (inactive) | > 100 µM (inactive) | > 100 µM (inactive) | > 100 µM (inactive) | > 100 µM (inactive) | 36.6 µM (inactive) | > 100 µM (inactive) | – | > 100 µM (inactive) | > 100 µM (inactive) | > 100 µM (inactive) | – | > 100 µM (inactive) | > 100 µM (inactive)
12 | CC1=CC(C)C(C)N(CCNC(=O)Nc2ccccc2)c2ccccc21 (stereo unspecified) | 15.8 µM (inactive) | 25.9 µM (inactive) | 28.2 µM (inactive) | 17.1 µM (inactive) | 23.8 µM (inactive) | 17.4 µM (inactive) | 20 µM (inactive) | 17.6 µM (inactive) | 19.8 µM (inactive) | 12.1 µM (inactive) | 16 µM (inactive) | 27.5 µM (inactive) | 28.6 µM (inactive) | 25.9 µM (inactive) | 20.3 µM (inactive) | 26.5 µM (inactive) | – | 11.5 µM (inactive) | 10 µM (inactive) | –
